Test results as given in publication PMC4767141, “Discovery of Potent, Orally Bioavailable, Small-Molecule Inhibitors of WNT Signaling from a Cell-Based Pathway Screen” (Journal of Medicinal Chemistry, 2015).
pIC50: −log10 of the molar value.

Columns and labels:
B2 (h) = target: T1, B2 (h) (Homo sapiens, UniProt P30411); experiment: CEREP binding panel; settings: agonist radioligand, read-out: % Inhibition of Control Specific Binding
T1 construct: purchased Millipore KinaseProfiler (kinases); Cerep (receptors and ion channels)

IRAK1 = target: T2, IRAK1 (Homo sapiens, UniProt P51617); experiment: Millipore kinase panel; assay type: biochemical; settings: read-out: % Control
T2 construct: purchased Millipore KinaseProfiler (kinases); Cerep (receptors and ion channels)

ALK = target: T3, ALK (Homo sapiens, UniProt Q9UM73); experiment: Millipore kinase panel; assay type: biochemical; settings: read-out: % Control
T3 construct: purchased Millipore KinaseProfiler (kinases); Cerep (receptors and ion channels)

FLT4 = target: T4, FLT4 (Homo sapiens, UniProt P35916); experiment: Millipore kinase panel; assay type: biochemical; settings: read-out: % Control
T4 construct: purchased Millipore KinaseProfiler (kinases); Cerep (receptors and ion channels)

5-HT7 (h) = target: T5, 5-HT7 (h) (Homo sapiens, UniProt P34969); experiment: CEREP binding panel; settings: agonist radioligand, read-out: % Inhibition of Control Specific Binding
T5 construct: purchased Millipore KinaseProfiler (kinases); Cerep (receptors and ion channels)

EEF-2K = target: T6, EEF-2K (Homo sapiens, UniProt O00418); experiment: Millipore kinase panel; assay type: biochemical; settings: read-out: % Control
T6 construct: purchased Millipore KinaseProfiler (kinases); Cerep (receptors and ion channels)

IR, ACTIVATED = target: T7, IR, ACTIVATED (Homo sapiens, UniProt P06213); experiment: Millipore kinase panel; assay type: biochemical; settings: read-out: % Control
T7 construct: purchased Millipore KinaseProfiler (kinases); Cerep (receptors and ion channels)

A2A (h) = target: T8, A2A (h) (Homo sapiens, UniProt P29274); experiment: CEREP binding panel; settings: agonist radioligand, read-out: % Inhibition of Control Specific Binding
T8 construct: purchased Millipore KinaseProfiler (kinases); Cerep (receptors and ion channels)

PKG1BETA = target: T9, PKG1BETA (Homo sapiens, UniProt Q13976); experiment: Millipore kinase panel; assay type: biochemical; settings: ATP at Km
T9 construct: purchased Millipore

ABL = target: T10, ABL (Homo sapiens, UniProt P00519); experiment: Millipore kinase panel; assay type: biochemical; settings: read-out: % Control
T10 construct: purchased Millipore KinaseProfiler (kinases); Cerep (receptors and ion channels)

NEK3 = target: T11, NEK3 (Homo sapiens, UniProt P51956); experiment: Millipore kinase panel; assay type: biochemical; settings: read-out: % Control
T11 construct: purchased Millipore KinaseProfiler (kinases); Cerep (receptors and ion channels)

A1 (h) = target: T12, A1 (h) (Homo sapiens, UniProt P30542); experiment: CEREP binding panel; settings: antagonist radioligand, read-out: % Inhibition of Control Specific Binding
T12 construct: purchased Millipore KinaseProfiler (kinases); Cerep (receptors and ion channels)

SGK2 = target: T13, SGK2 (Homo sapiens, UniProt Q9HBY8); experiment: Millipore kinase panel; assay type: biochemical; settings: read-out: % Control
T13 construct: purchased Millipore KinaseProfiler (kinases); Cerep (receptors and ion channels)

EPHA5 = target: T14, EPHA5 (Homo sapiens, UniProt P54756); experiment: Millipore kinase panel; assay type: biochemical; settings: read-out: % Control
T14 construct: purchased Millipore KinaseProfiler (kinases); Cerep (receptors and ion channels)

ROCK-I = target: T15, ROCK-I (Homo sapiens, UniProt Q13464); experiment: Millipore kinase panel; assay type: biochemical; settings: read-out: % Control
T15 construct: purchased Millipore KinaseProfiler (kinases); Cerep (receptors and ion channels)

TBK1 = target: T16, TBK1 (Homo sapiens, UniProt Q9UHD2); experiment: Millipore kinase panel; assay type: biochemical; settings: read-out: % Control
T16 construct: purchased Millipore KinaseProfiler (kinases); Cerep (receptors and ion channels)

M2 (h) = target: T17, M2 (h) (Homo sapiens, UniProt P08172); experiment: CEREP binding panel; settings: antagonist radioligand, read-out: % Inhibition of Control Specific Binding
T17 construct: purchased Millipore KinaseProfiler (kinases); Cerep (receptors and ion channels)

sst (non-selective) = experiment: CEREP binding panel; settings: 10 μM, agonist radioligand
DAPK2 = target: T18, DAPK2 (Homo sapiens, UniProt Q9UIK4); experiment: Millipore kinase panel; assay type: biochemical; settings: read-out: % Control
T18 construct: purchased Millipore KinaseProfiler (kinases); Cerep (receptors and ion channels)

JNK1ALPHA1 = target: T19, JNK1ALPHA1 (Homo sapiens, UniProt P45983); experiment: Millipore kinase panel; assay type: biochemical; settings: read-out: % Control
T19 construct: purchased Millipore KinaseProfiler (kinases); Cerep (receptors and ion channels)

PLK3 = target: T20, PLK3 (Homo sapiens, UniProt Q9H4B4); experiment: Millipore kinase panel; assay type: biochemical; settings: read-out: % Control
T20 construct: purchased Millipore KinaseProfiler (kinases); Cerep (receptors and ion channels)

BRSK2 = target: T21, BRSK2 (Homo sapiens, UniProt Q8IWQ3); experiment: Millipore kinase panel; assay type: biochemical; settings: read-out: % Control
T21 construct: purchased Millipore KinaseProfiler (kinases); Cerep (receptors and ion channels)

PRKX = target: T22, PRKX (Homo sapiens, UniProt P51817); experiment: Millipore kinase panel; assay type: biochemical; settings: read-out: % Control
T22 construct: purchased Millipore KinaseProfiler (kinases); Cerep (receptors and ion channels)

EPHA8 = target: T23, EPHA8 (Homo sapiens, UniProt P29322); experiment: Millipore kinase panel; assay type: biochemical; settings: read-out: % Control
T23 construct: purchased Millipore KinaseProfiler (kinases); Cerep (receptors and ion channels)

EGFR = target: T24, EGFR (Homo sapiens, UniProt P00533); experiment: Millipore kinase panel; assay type: biochemical; settings: read-out: % Control
T24 construct: purchased Millipore KinaseProfiler (kinases); Cerep (receptors and ion channels)

NEK2 = target: T25, NEK2 (Homo sapiens, UniProt P51955); experiment: Millipore kinase panel; assay type: biochemical; settings: read-out: % Control
T25 construct: purchased Millipore KinaseProfiler (kinases); Cerep (receptors and ion channels)

HIPK3 = target: T26, HIPK3 (Homo sapiens, UniProt Q9H422); experiment: Millipore kinase panel; assay type: biochemical; settings: read-out: % Control
T26 construct: purchased Millipore KinaseProfiler (kinases); Cerep (receptors and ion channels)

5-HT1B = target: T27, 5-HT1B (Rattus norvegicus, UniProt P28564); experiment: CEREP binding panel; settings: antagonist radioligand, read-out: % Inhibition of Control Specific Binding
T27 construct: purchased Millipore KinaseProfiler (kinases); Cerep (receptors and ion channels)

ITK = target: T28, ITK (Homo sapiens, UniProt Q08881); experiment: Millipore kinase panel; assay type: biochemical; settings: read-out: % Control
T28 construct: purchased Millipore KinaseProfiler (kinases); Cerep (receptors and ion channels)

5-HT transporter (h) = target: T29, 5-HT transporter (h) (Homo sapiens, UniProt P31645); experiment: CEREP binding panel; settings: antagonist radioligand, read-out: % Inhibition of Control Specific Binding
T29 construct: purchased Millipore KinaseProfiler (kinases); Cerep (receptors and ion channels)

TAO1 = target: T30, TAO1 (Homo sapiens, UniProt Q7L7X3); experiment: Millipore kinase panel; assay type: biochemical; settings: read-out: % Control
T30 construct: purchased Millipore KinaseProfiler (kinases); Cerep (receptors and ion channels)

PKA = target: T31, PKA (Homo sapiens, UniProt P17612); experiment: Millipore kinase panel; assay type: biochemical; settings: read-out: % Control
T31 construct: purchased Millipore KinaseProfiler (kinases); Cerep (receptors and ion channels)

SAPK4 = target: T32, SAPK4 (Homo sapiens, UniProt O15264); experiment: Millipore kinase panel; assay type: biochemical; settings: read-out: % Control
T32 construct: purchased Millipore KinaseProfiler (kinases); Cerep (receptors and ion channels)

PKCMU = target: T33, PKCMU (Homo sapiens, UniProt Q15139); experiment: Millipore kinase panel; assay type: biochemical; settings: read-out: % Control
T33 construct: purchased Millipore KinaseProfiler (kinases); Cerep (receptors and ion channels)

CAMKI = target: T34, CAMKI (Homo sapiens, UniProt Q14012); experiment: Millipore kinase panel; assay type: biochemical; settings: read-out: % Control
T34 construct: purchased Millipore KinaseProfiler (kinases); Cerep (receptors and ion channels)

PRK2 = target: T35, PRK2 (Homo sapiens, UniProt Q16513); experiment: Millipore kinase panel; assay type: biochemical; settings: read-out: % Control
T35 construct: purchased Millipore KinaseProfiler (kinases); Cerep (receptors and ion channels)

AXL = target: T36, AXL (Homo sapiens, UniProt P30530); experiment: Millipore kinase panel; assay type: biochemical; settings: read-out: % Control
T36 construct: purchased Millipore KinaseProfiler (kinases); Cerep (receptors and ion channels)

MKK4 = experiment: Millipore kinase panel; assay type: biochemical; settings: 1 μM, ATP at Km
MUSK = target: T37, MUSK (Homo sapiens, UniProt O15146); experiment: Millipore kinase panel; assay type: biochemical; settings: read-out: % Control
T37 construct: purchased Millipore KinaseProfiler (kinases); Cerep (receptors and ion channels)

SKCa channel = experiment: CEREP binding panel; settings: 10 μM, antagonist radioligand
PAK2 = target: T38, PAK2 (Homo sapiens, UniProt Q13177); experiment: Millipore kinase panel; assay type: biochemical; settings: read-out: % Control
T38 construct: purchased Millipore KinaseProfiler (kinases); Cerep (receptors and ion channels)

MAPK1 = target: T39, MAPK1 (Homo sapiens, UniProt P27361); experiment: Millipore kinase panel; assay type: biochemical; settings: read-out: % Control
T39 construct: purchased Millipore KinaseProfiler (kinases); Cerep (receptors and ion channels)

[1] = target: T40, norepinephrine transporter (h) (Homo sapiens, UniProt P23975); experiment: CEREP binding panel; settings: antagonist radioligand, read-out: % Inhibition of Control Specific Binding
T40 construct: purchased Millipore KinaseProfiler (kinases); Cerep (receptors and ion channels)

CDK3/CYCLINE = target: T41, CDK3/CYCLINE (Homo sapiens, UniProt Q00526); experiment: Millipore kinase panel; assay type: biochemical; settings: read-out: % Control
T41 construct: purchased Millipore KinaseProfiler (kinases); Cerep (receptors and ion channels)

T10 sequence (P00519 whole entry): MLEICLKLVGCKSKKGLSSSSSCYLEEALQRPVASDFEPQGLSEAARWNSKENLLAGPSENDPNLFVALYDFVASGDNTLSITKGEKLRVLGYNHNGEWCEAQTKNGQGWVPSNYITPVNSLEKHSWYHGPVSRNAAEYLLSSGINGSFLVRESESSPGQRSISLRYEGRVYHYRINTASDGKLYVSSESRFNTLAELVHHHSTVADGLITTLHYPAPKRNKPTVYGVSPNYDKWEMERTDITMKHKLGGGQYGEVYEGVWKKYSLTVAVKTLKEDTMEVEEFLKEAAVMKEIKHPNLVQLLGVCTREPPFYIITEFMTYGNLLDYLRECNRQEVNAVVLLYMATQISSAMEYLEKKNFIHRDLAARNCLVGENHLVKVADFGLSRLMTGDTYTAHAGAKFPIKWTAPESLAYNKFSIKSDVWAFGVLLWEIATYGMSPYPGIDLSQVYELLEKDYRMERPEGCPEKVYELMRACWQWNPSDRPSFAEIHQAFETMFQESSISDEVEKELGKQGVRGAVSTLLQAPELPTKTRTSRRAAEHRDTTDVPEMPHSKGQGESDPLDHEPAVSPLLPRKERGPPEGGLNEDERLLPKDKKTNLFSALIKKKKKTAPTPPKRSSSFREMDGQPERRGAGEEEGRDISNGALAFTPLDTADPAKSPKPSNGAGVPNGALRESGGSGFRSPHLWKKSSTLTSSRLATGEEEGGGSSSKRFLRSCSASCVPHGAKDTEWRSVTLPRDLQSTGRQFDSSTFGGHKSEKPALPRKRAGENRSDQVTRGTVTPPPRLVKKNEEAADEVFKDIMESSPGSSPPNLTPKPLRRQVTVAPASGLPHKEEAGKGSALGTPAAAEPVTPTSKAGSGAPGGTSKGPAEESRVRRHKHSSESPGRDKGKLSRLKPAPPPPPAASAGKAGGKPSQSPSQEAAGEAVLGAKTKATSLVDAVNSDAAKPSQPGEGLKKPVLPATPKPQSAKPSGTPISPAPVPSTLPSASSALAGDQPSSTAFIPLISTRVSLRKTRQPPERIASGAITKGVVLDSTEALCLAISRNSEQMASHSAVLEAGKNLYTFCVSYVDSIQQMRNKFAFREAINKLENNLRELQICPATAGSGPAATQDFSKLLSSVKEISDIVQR
T26 sequence (Q9H422 whole entry): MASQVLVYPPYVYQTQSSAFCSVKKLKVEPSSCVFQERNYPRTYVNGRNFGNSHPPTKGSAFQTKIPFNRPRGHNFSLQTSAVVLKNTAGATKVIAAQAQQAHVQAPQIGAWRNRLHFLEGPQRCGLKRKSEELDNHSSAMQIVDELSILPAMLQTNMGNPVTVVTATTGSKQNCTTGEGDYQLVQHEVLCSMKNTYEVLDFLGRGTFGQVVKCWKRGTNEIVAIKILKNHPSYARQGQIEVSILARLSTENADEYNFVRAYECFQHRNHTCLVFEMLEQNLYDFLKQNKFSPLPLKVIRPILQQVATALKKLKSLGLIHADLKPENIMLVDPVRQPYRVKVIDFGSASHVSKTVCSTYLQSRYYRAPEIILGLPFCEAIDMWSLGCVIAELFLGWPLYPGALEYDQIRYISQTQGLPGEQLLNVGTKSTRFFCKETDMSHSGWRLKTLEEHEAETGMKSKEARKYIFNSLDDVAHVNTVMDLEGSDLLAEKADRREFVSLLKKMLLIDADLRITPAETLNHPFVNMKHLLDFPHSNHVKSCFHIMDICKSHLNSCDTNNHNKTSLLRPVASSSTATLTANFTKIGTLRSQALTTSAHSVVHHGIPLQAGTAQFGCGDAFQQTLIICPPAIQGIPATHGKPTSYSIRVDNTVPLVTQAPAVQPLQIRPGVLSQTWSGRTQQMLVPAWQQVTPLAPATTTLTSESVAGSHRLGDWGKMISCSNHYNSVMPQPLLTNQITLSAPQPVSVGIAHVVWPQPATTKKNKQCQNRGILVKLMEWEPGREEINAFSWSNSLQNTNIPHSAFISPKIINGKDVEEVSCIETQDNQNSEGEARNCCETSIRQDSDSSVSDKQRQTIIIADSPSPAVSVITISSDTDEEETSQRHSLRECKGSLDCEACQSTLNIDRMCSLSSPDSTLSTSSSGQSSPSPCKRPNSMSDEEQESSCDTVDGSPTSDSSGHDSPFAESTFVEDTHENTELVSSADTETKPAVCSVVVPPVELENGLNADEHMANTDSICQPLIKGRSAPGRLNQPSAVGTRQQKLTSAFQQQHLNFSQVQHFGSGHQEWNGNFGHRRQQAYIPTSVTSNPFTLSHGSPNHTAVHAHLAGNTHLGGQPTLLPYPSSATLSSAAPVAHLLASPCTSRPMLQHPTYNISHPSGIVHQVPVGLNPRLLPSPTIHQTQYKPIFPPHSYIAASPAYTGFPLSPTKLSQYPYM
T17 sequence (P08172 whole entry): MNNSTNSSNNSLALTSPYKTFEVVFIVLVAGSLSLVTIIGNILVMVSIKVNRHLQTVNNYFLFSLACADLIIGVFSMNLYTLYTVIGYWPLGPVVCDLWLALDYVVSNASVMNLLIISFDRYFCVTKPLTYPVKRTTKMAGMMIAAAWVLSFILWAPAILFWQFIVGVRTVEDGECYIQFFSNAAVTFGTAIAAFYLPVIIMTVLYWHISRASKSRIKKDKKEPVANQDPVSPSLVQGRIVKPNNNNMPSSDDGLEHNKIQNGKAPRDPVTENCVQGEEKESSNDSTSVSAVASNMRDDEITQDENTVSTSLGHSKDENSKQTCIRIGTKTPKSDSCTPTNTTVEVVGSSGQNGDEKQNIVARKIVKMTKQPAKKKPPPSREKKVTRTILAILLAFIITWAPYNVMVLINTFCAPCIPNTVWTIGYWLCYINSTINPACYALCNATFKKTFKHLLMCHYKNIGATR
T38 sequence (Q13177 whole entry): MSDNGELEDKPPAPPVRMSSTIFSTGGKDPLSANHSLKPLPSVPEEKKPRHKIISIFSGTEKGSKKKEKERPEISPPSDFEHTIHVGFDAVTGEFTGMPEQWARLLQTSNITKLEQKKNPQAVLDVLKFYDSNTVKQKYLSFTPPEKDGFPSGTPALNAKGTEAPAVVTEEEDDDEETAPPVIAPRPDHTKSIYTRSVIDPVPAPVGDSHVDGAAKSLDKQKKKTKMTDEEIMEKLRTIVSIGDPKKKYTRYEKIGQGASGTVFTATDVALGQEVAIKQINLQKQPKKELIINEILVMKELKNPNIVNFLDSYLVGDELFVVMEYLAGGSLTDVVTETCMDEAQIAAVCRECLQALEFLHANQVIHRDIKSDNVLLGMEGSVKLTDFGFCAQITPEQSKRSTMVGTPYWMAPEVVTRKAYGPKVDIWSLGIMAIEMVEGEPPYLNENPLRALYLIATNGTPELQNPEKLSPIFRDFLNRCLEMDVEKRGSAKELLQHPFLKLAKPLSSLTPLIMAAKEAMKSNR
T37 sequence (O15146 24-869): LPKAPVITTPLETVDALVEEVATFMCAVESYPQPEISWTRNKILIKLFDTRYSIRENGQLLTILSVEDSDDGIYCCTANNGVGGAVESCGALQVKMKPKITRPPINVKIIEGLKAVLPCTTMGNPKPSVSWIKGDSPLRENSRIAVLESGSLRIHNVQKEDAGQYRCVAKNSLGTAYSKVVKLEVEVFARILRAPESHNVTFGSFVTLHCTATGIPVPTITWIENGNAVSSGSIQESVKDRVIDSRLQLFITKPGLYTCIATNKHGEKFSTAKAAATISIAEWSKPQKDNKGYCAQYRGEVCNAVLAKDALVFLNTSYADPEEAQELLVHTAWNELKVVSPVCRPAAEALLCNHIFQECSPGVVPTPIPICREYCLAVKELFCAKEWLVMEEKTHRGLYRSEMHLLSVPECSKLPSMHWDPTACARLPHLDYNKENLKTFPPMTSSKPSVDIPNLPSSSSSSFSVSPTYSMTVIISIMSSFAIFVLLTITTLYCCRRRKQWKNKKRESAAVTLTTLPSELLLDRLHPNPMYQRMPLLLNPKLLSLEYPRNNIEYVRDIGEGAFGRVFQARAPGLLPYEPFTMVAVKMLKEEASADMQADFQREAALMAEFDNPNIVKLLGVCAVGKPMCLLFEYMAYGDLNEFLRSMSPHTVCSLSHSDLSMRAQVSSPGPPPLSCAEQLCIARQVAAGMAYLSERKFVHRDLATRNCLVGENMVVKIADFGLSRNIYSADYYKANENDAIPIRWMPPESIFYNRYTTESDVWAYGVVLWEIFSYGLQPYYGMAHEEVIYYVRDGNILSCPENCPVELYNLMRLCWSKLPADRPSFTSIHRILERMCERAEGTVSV
T20 sequence (Q9H4B4 whole entry): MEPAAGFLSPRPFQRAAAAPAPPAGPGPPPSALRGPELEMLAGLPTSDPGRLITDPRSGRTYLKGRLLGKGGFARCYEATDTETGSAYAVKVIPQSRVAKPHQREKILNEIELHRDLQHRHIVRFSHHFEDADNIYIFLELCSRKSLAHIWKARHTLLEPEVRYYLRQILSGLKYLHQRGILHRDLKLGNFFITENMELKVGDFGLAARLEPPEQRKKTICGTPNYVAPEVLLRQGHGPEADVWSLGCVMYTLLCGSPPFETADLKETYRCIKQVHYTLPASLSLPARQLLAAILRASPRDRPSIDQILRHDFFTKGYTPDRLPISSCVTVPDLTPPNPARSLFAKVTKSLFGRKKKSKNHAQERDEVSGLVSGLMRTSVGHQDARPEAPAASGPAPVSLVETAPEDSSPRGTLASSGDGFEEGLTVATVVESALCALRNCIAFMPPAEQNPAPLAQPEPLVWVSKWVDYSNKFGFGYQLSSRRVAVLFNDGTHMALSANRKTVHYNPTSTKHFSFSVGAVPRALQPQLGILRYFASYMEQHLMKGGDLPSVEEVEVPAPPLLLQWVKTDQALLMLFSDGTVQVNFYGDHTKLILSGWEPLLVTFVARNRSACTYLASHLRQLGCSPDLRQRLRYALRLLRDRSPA

Cn1cc(-c2ccc(-c3cncc(Cl)c3N3CCC4(CCNC4=O)CC3)cc2)cn1 [Compound 74, 8-(3-Chloro-5-(4-(1-methyl-1H-pyrazol-4-yl)phenyl)pyridin-4-yl)-2,8-diazaspiro[4.5]decan-1-one]
inhibition at 10 µM (B2 (h)): 0%
remaining activity at 1 µM (IRAK1): -9%
remaining activity at 1 µM (ALK): -22%
remaining activity at 1 µM (FLT4): -23%
inhibition at 10 µM (5-HT7 (h)): 1%
remaining activity at 1 µM (EEF-2K): 15%
remaining activity at 1 µM (IR, ACTIVATED): -4%
inhibition at 10 µM (A2A (h)): 22%
pIC50 (PKG1BETA): < 5.00
remaining activity at 1 µM (ABL): -5%
remaining activity at 1 µM (NEK3): 15%
inhibition at 10 µM (A1 (h)): -12%
remaining activity at 1 µM (SGK2): -17%
remaining activity at 1 µM (EPHA5): 6%
remaining activity at 1 µM (ROCK-I): -1%
remaining activity at 1 µM (TBK1): 4%
inhibition at 10 µM (M2 (h)): 38%
% Inhibition of Control Specific Binding (sst (non-selective)): 4%
remaining activity at 1 µM (DAPK2): 13%
remaining activity at 1 µM (JNK1ALPHA1): -9%
remaining activity at 1 µM (PLK3): 0%
remaining activity at 1 µM (BRSK2): -4%
remaining activity at 1 µM (PRKX): 2%
remaining activity at 1 µM (EPHA8): -7%
remaining activity at 1 µM (EGFR): 10%
remaining activity at 1 µM (NEK2): 6%
remaining activity at 1 µM (HIPK3): -2%
inhibition at 10 µM (5-HT1B): -7%
remaining activity at 1 µM (ITK): -3%
inhibition at 10 µM (5-HT transporter (h)): 70%
remaining activity at 1 µM (TAO1): -14%
remaining activity at 1 µM (PKA): 24%
remaining activity at 1 µM (SAPK4): -4%
remaining activity at 1 µM (PKCMU): -1%
remaining activity at 1 µM (CAMKI): -12%
remaining activity at 1 µM (PRK2): 0%
remaining activity at 1 µM (AXL): -18%
% Control (MKK4): 13%
remaining activity at 1 µM (MUSK): 6%
% Inhibition of Control Specific Binding (SKCa channel): 3%
remaining activity at 1 µM (PAK2): -7%
remaining activity at 1 µM (MAPK1): 11%
inhibition at 10 µM [1]: 14%
remaining activity at 1 µM (CDK3/CYCLINE): 1%
